Data reported in ChEMBL document CHEMBL4800728, “Data for DCP probe JNJ-54119936” (2021).

How the values were obtained:
[1] = target: Cyclin-dependent kinase 1/cyclin B (Homo sapiens) (UniProt P06493+P14635+Q8WWL7+O95067); assay: CDK1/cyclinB Invitrogen kinase panel; assay type: protein-complex assay; settings: Compound concentration 10.0 uM
[2] = target: GABA-A receptor; anion channel (Homo sapiens) (UniProt P14867+P47870+P18507+P28472+P48169+Q99928+Q9UN88+P34903+O00591+O14764+Q8N1C3+P18505+P78334+P47869+P31644+Q16445); assay: GABA (non selective) CEREP screen; assay type: protein-complex assay; settings: Compound concentration 1.0 uM
[3] = target: D(1A) dopamine receptor (Homo sapiens) (UniProt P21728); assay: D1 (h) CEREP screen; settings: Compound concentration 10.0 uM
Sequence of D(1A) dopamine receptor (Homo sapiens) (P21728 whole entry): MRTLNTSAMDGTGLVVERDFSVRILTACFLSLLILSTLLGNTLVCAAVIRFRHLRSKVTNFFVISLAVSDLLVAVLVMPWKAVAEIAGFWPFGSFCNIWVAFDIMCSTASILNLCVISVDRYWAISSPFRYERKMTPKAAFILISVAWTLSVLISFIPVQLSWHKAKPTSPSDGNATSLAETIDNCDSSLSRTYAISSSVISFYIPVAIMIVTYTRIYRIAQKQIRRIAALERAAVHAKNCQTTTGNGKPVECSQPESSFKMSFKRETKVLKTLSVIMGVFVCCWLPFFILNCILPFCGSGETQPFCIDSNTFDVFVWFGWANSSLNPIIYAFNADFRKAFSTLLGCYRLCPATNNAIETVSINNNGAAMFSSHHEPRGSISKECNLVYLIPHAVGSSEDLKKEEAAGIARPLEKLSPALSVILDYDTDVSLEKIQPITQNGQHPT

[4] = target: 5-hydroxytryptamine receptor 5A (Homo sapiens) (UniProt P47898); settings: Compound concentration 10.0 uM
Sequence of 5-hydroxytryptamine receptor 5A (Homo sapiens) (P47898 whole entry): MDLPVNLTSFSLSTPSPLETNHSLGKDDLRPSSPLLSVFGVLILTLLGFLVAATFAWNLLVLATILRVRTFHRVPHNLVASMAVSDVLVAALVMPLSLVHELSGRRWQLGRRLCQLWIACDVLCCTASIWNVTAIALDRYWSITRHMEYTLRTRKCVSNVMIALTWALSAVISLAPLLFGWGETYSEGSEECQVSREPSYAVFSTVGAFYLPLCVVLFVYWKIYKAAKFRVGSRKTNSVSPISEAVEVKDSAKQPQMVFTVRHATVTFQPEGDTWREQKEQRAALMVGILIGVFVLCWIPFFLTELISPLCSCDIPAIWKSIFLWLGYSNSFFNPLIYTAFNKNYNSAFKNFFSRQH

[5] = target: T1, Bile acid receptor (Homo sapiens) (UniProt Q96RI1); assay: FXR Indigo Bioscience nuclear receptor screen
T1 sequence (whole entry): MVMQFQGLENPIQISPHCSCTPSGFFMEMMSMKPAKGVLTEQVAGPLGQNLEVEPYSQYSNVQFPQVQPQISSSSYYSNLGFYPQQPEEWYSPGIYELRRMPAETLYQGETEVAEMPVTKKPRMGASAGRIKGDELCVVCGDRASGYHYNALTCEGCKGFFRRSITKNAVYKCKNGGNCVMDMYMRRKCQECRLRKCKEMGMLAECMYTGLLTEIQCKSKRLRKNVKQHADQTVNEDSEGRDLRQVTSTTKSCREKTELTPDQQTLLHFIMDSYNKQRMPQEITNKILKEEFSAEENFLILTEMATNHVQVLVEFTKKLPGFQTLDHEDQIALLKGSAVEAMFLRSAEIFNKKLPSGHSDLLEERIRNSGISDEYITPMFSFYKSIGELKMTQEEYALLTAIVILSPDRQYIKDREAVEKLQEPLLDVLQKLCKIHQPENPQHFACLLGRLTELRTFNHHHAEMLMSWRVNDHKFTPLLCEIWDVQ

[6] = target: T2, PXR (nuclear receptor subfamily 1 group I member 2) (Homo sapiens, UniProt O75469); assay: PXR Indigo Bioscience nuclear receptor screen
T2 sequence (O75469 whole entry): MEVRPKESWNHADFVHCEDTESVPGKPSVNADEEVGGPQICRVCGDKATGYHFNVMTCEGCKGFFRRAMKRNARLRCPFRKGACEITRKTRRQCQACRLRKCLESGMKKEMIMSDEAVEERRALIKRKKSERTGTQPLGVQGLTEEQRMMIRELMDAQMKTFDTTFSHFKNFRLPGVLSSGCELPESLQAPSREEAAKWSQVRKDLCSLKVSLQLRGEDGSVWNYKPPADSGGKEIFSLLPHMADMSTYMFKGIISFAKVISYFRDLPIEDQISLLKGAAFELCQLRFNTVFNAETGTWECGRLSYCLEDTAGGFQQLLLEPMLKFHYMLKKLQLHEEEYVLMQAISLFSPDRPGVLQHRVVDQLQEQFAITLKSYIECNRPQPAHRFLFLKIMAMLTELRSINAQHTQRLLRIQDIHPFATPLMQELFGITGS

[7] = target: T3, Glucocorticoid receptor (Homo sapiens) (UniProt P04150); assay: GR Indigo Bioscience nuclear receptor screen
T3 sequence (whole entry): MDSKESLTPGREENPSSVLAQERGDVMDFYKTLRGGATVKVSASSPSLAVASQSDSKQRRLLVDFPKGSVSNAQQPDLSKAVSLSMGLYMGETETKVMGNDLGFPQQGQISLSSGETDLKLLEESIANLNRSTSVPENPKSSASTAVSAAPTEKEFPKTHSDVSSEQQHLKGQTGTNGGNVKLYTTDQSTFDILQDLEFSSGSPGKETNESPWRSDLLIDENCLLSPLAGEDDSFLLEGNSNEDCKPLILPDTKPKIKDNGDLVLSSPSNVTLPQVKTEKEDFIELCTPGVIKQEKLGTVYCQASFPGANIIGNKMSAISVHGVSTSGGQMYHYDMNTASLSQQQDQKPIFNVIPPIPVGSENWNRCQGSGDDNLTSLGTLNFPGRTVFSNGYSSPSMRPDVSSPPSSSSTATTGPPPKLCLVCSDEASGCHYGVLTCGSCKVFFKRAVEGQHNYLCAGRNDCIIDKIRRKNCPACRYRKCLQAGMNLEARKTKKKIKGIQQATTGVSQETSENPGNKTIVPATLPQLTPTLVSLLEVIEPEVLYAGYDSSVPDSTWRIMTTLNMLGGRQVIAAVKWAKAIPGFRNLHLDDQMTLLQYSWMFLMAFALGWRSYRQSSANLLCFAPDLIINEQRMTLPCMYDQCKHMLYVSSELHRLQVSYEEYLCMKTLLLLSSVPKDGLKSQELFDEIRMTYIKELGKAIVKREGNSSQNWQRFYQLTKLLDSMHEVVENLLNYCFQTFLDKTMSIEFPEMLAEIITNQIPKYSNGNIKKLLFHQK

[8] = target: Nuclear receptor subfamily 1 group I member 3 (Homo sapiens, UniProt Q14994); assay: (§1) CAR In-house nuclear receptor screen
[9] = target: T4, CAR (nuclear receptor subfamily 1 group I member 3) (Homo sapiens, UniProt Q14994); assay: as §1; settings: human; compound concentration 3 uM
T4 sequence (Q14994 whole entry): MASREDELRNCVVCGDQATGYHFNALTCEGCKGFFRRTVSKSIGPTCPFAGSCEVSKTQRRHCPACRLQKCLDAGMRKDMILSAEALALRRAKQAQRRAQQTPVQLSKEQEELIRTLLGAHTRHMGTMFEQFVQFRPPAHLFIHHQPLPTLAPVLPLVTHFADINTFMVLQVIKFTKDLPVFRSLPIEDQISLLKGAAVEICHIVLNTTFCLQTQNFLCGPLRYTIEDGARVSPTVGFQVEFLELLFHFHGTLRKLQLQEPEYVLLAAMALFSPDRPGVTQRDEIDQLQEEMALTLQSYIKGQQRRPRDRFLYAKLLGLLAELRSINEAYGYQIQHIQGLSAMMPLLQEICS

[10] = target: Ephrin type-A receptor 2 (Homo sapiens) (UniProt P29317); assay: EphA2 Invitrogen kinase panel; settings: Compound concentration 10.0 uM
Sequence of Ephrin type-A receptor 2 (Homo sapiens) (P29317 whole entry): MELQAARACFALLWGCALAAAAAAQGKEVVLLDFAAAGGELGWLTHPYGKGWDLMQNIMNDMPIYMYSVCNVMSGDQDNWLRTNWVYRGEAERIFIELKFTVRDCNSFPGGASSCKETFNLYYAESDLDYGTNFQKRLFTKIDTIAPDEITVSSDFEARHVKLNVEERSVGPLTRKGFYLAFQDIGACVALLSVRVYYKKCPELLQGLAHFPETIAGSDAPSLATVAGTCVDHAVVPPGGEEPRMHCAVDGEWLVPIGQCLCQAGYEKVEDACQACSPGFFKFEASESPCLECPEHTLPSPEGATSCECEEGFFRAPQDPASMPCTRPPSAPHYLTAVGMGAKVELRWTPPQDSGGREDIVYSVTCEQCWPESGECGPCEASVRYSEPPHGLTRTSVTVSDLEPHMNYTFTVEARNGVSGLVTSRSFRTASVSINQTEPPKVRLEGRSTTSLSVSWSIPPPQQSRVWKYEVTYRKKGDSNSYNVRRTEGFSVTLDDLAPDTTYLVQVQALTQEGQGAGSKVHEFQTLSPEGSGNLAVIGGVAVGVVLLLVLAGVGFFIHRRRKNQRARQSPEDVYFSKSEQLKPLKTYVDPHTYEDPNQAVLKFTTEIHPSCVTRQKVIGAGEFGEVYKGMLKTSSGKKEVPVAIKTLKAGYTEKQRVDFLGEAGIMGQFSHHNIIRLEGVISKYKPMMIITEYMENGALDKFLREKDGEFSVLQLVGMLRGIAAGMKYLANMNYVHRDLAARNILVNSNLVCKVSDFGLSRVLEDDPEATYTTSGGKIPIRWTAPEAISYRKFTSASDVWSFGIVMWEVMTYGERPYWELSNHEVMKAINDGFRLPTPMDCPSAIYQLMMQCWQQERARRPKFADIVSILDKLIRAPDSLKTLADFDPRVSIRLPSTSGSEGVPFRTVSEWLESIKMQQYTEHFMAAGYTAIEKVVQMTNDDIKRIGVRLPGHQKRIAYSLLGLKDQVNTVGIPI

- inhibition [1]: 0%
- inhibition [2]: 12%
- inhibition [3]: 16%
- inhibition [4]: -0.46%
- inhibition ([5]; Compound concentration 0.3 uM): -8.5%
- inhibition ([5]; Compound concentration 1.0 uM): 5.23%
- inhibition at 0.3 µM ([6]; compound concentration 0.3 uM): -7.63% (not active)
- inhibition at 1 µM ([6]; compound concentration 1 uM): -26.4% (not active)
- inhibition at 3 µM ([6]; compound concentration 3 uM): 1.01% (not active)
- inhibition ([7]; Compound concentration 0.3 uM): 4.11%
- inhibition ([7]; Compound concentration 1.0 uM): 2.23%
- inhibition ([7]; Compound concentration 3.0 uM): 12.6%
- IC50 [8]: 8.4 µM
- inhibition at 3 µM [9]: 31.2% (not active)
- inhibition [10]: 6%
Compound: COc1nc2ccc([C@@](O)(c3ccccc3)C3CCN(C(C)=O)CC3)cc2c(Cl)c1Cc1ccc(-n2cccn2)cc1 [JNJ-54119936]
